{
  "source": "patent US7566453B2",
  "about": "“Methods for treating melanomas” (Chugai Seiyaku Kabushiki Kaisha, priority 1998, dated 2009)",
  "key": {"[1]": {"tested_on": "KPMM2 cells", "assay": "Human myeloma cell-implanted SCID mouse system, dose dependency of antibody (Example 3): survival, serum M protein", "assay_type": "in vivo", "conditions": "for Life-elongation ratio (%): vs drug non-administration group; for Survival period: mean±standard error", "procedure": "For evaluation of antitumor effects, a xenograft model animal that was produced by implanting KPMM2 cells via the tail vein was used as in Working example 2. Thus, single-cell suspensions which were prepared by passing through a mesh KPMM2 cells that were minced after having been maintained in vivo were implanted at 0.2 ml per mouse via the tail vein (6×10^6 cells per mouse). The day when the cells were implanted was set at day 0.\nThey were given to mice at 0.1 ml per 10 g body weight of mouse via the tail vein on day 14 to create the 50, 10, 2, and 0.4 mg/kg administration groups.\nMelphalan (L-PAM, manufactured by Sigma Chemical Co.) was used as a suspension of 0.1 mg/ml in 0.2% CMC solution in water. This was given orally at 0.1 ml per 10 g body weight of mouse (1 mg/kg weight) for 5 consecutive days starting on day 7.\nThe experiment was carried out on the following 10 groups: (A) the melphalan and the antibody non-administration group; (B) the melphalan single-drug administration group; (C) the each dose of antibody single-drug administration group , 4 groups (50, 10, 2, 0.4 mg/kg weight); and, (D) the melphalan and the each dose of antibody combined administration group, 4 groups (50, 10, 2, 0.4 mg/kg weight). The non-administration group included 12 mice per group, the melphalan administration group 6 mice per group, whereas each of the other groups included 7 mice. Furthermore, mice of the same lineage and purchased on the same day were raised without implanting a tumor, and the animals were used as negative control for M protein detection. The amount of M protein was calculated as described in Example 2.\nIndices of the drug efficacy included the survival period, and the amount of M proteins on day 30, day 35, and day 42. For analysis of the survival period, a generalized Wilcoxon's test (SPSS for Windows ver. 6, SPSS inc.) was used. A significance level of 5% or lower was considered to be significant. For analysis of the amount of M protein in the serum, the ANOVA (Analysis of variance, SPSS for windows ver. 6, SPSS inc.) was first conducted. After confirming significance, Bonferroni method (SPSS for windows ver. 6, SPSS inc.) was used, and a significance level of 5% or lower was considered to be significant."}, "[2]": {"tested_on": "KPMM2 cells", "procedure": "The effects of anti-human IL-6 receptor antibody on sensitivity of KPMM2 cells to chemotherapeutic agents used for treatment of myeloma such as adriamycin (ADR, manufactured by Kyowa Hakko), vincristine (VCR, manufactured by Sigma Chemical Co.), and melphalan (L-PAM, manufactured by Sigma Chemical Co.) were evaluated.\nKPMM2 is a multiple myeloma cell line derived from the ascites of a human patient with myeloma (see Japanese Unexamined Patent Publication (Kokai) No. 7-236475). […] The growth activity of the cell was evaluated by incorporation of ^3H-labeled thymidine (manufactured by Amersham) into the cell.\nThe KPMM2 cells that had been maintained were washed thoroughly with a fresh medium (RPMI1640 medium supplemented with 20% FBS), and then were adjusted to 4×10^5/ml, which was dispensed in 50 μl aliquots in a 96-well flat-bottomed microtiter plate (manufactured by Falcon). Furthermore, a medium containing a recombinant human IL-6 (Asagoe, Y. et al., Bio/Technology (1988) 6, 806-809), anti-human IL-6 receptor antibody hPM-1 (see the above reference example 1 or International Patent Application WO 92-15759), and the above chemotherapeutic agents or a fresh medium as control were added to make 200 μl in each well.\nThe plate was incubated at 37° C. for 4 days under the humidified condition in the presence of 5% CO2. At four hours before the end of incubation, 10 μl of ^3H-labeled thymidine solution (100 μCi/ml) was added to each well, and then incubated for more 4 hours. At the end of incubation, the cells were collected onto the glass filter (manufactured by Printed Filtermat A, WALLAC) using a harvester (Micro 96 Harvester, manufactured by SKATRON Instruments). The radioactivity incorporated into the cells was measured by a microbeta (1450 MicroBeta, manufactured by WALLAC).\nThe activity of growth inhibition on KPMM2 was expressed using the effect by a chemotherapeutic agent alone as the control. Using the incorporation of ^3H-labeled thymidine into the cell for each experimental group in which a each concentration of a chemotherapeutic agent was added as 100, the amount of ^3H-labeled thymidine incorporated into the cell in an experimental group in which anti-human IL-6 receptor antibody was simultaneously added was compared as an index."}},
  "note": "Where “and” joins values, the source holds several entries; their conditions need not be identical. Identical values can stand only once.",
  "data": [
    {"compound": "NC(Cc1ccc(N(CCCl)CCCl)cc1)C(=O)O", "note": "(centres unmarked) [melphalan]", "values": [
      {"measurement": "Life-elongation ratio (%)", "setting": "[1]; melphalan 1 mg/kg orally 5 days from day 7, no antibody", "value": 142, "unit": "%"},
      {"measurement": "Survival period", "setting": "[1]; melphalan 1 mg/kg orally, 5 consecutive days from day 7, no antibody", "value": "58.2 ± 1.8"},
      {"measurement": "Life-elongation ratio (%), value in parentheses", "setting": "[1]; melphalan 1 mg/kg, no antibody, melphalan single-drug administration group as control", "value": 100, "unit": "%"},
      {"measurement": "life elongation effect (survival period)", "setting": "[1]; melphalan alone, 1 mg/kg", "value": "significant life elongation effect"},
      {"measurement": "amount of M protein in the serum on day 30", "setting": "[1]; melphalan single-drug administration, 1 mg/kg (FIG. 11)", "value": "significantly inhibited"},
      {"measurement": "relationship of growth index with the concentration of chemotherapeutic agent", "setting": "[2]; fixed concentration of anti-human IL-6 receptor antibody, 0.1 or 1 ng/ml IL-6 (FIG. 1 to 6)", "value": "decreased with the increase in melphalan concentration"}
    ]},
    {"compound": "hPM-1: reshaped human PM-1 antibody: CDRs of mouse anti-IL-6 receptor antibody PM-1 grafted to human antibody, produced in CHO cells", "values": [
      {"measurement": "life elongation effect (survival period)", "setting": "[1]; antibody single-drug administration, 50, 10, 2, 0.4 mg/kg", "value": "none of the doses in the antibody single-drug administration group gave a significant life elongation effect"},
      {"measurement": "amount of M protein in the serum on day 30", "setting": "[1]; antibody single-drug administration, 50, 10, 2, 0.4 mg/kg on day 14 (FIG. 11)", "value": "none of the doses significantly inhibited the amount of M protein"},
      {"measurement": "Life-elongation ratio (%)", "setting": "[1]; hPM-1 0.4 mg/kg on day 14, CMC control", "value": 98, "unit": "%"},
      {"measurement": "Survival period", "setting": "[1]; hPM-1 0.4 mg/kg via the tail vein on day 14, CMC control", "value": "40.3 ± 1.2"},
      {"measurement": "Life-elongation ratio (%)", "setting": "[1]; hPM-1 2 mg/kg on day 14, CMC control", "value": 101, "unit": "%"},
      {"measurement": "Survival period", "setting": "[1]; hPM-1 2 mg/kg via the tail vein on day 14, CMC control", "value": "41.4 ± 1.3"},
      {"measurement": "Life-elongation ratio (%)", "setting": "[1]; hPM-1 10 mg/kg on day 14, CMC control", "value": 99, "unit": "%"},
      {"measurement": "Survival period", "setting": "[1]; hPM-1 10 mg/kg via the tail vein on day 14, CMC control", "value": "40.4 ± 1.7"},
      {"measurement": "Life-elongation ratio (%)", "setting": "[1]; hPM-1 50 mg/kg on day 14, CMC control", "value": 101, "unit": "%"},
      {"measurement": "Survival period", "setting": "[1]; hPM-1 50 mg/kg via the tail vein on day 14, CMC control", "value": "41.6 ± 1.0"},
      {"measurement": "growth index (3H-thymidine incorporation, chemotherapeutic agent alone = 100)", "setting": "[2]", "value": "33.9 and 28.4"}
    ]}
  ]
}
